In ChEMBL document CHEMBL3727373, “Phosphoglycerate kinase inhibitors” (2012):
pIC50: −log10 of the molar value.

Target: T1, Phosphoglycerate kinase 1 (Homo sapiens, UniProt P00558)
T1 sequence (P00558 whole entry): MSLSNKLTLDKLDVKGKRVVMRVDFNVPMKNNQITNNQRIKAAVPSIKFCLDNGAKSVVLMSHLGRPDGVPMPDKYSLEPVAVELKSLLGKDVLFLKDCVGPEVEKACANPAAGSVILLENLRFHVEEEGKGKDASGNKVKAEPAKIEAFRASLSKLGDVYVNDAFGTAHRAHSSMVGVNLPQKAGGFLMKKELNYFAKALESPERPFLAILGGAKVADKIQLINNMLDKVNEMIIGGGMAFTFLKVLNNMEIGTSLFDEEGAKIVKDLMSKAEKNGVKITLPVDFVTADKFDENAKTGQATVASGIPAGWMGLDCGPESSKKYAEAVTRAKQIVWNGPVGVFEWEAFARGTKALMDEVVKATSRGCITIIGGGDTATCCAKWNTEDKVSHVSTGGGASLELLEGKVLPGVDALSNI
Experiment: Inhibition of PGK1 (unknown origin) pre-incubated with enzyme before 3-phosphoglycerate substrate addition and incubated for 30 mins in presence of NADH and ATP by glyceraldehyde P-dehydrogenase coupling based NADH fluorescence assay

| Compound | pIC50 |
| --- | --- |
| CCNc1nc2cc(Cl)c(OC)cc2nc1NCC | 8.05 |
| CCNc1nc2cc(OC)c(OC)cc2nc1NCCCN1CCCC1=O | 5.74 |
| CCNc1nc2cc(OC)c(OC)cc2nc1NCc1ccccn1 | 5.89 |
| CCNc1nc2cc(OC)c(OC)cc2nc1NCCCN1CCCC1 | 5.36 |
| CCNc1nc2cc(OC)c(Cl)cc2nc1NCCN1CCN(C)CC1 | 6.76 |
| CCNc1nc2cc(OC)c(Cl)cc2nc1-c1cccs1 | 6.72 |
| CCNc1nc2cc(OC)c(Cl)cc2nc1-c1cccc(Cl)c1 | 5.68 |
| CCNc1nc2cc(OC)c(Cl)cc2nc1-c1cccc(C(N)=O)c1 | 6.62 |
| CN1CCN(CCNc2nc3cc(Cl)c(C#N)cc3nc2-c2ccccn2)CC1 | 6.46 |
| CCNc1nc2cc(Cl)c(C#CCCCCO)cc2nc1NCC | 6.41 |
| CCNc1nc2cc(OC)c(OC)cc2nc1-c1ccncc1 | 5.18 |
| CCNc1nc2cc(OC)c(Cl)cc2nc1-c1cncc2ccccc12 | 5.82 |
| CNc1nc2cc(OC)c(OC)cc2nc1Cl | 4.62 |
| CCNc1nc2cc(OC)c(Cl)cc2nc1-c1ccc(C(C)=O)s1 | 5.96 |
| CCNc1nc2cc(Cl)c(C#CC(=O)OC)cc2nc1NCC | 6.20 |
| CCNc1nc2cc(OC)c(Cl)cc2nc1Cl | 5.93 |
| CCNc1nc2cc(OC)c(Cl)cc2nc1NCc1cccnc1 | 6.89 |
| CCNc1nc2cc(C#CCCO)c(Cl)cc2nc1NCCN1CCN(C)CC1 | 8.10 |
| CCNc1nc2cc(OC)c(OC)cc2nc1NCc1cccnc1 | 6.15 |
| CCNc1nc2cc(OC)c(Cl)cc2nc1NCCCN1CCCC1 | 6.60 |
| CCNc1nc2cc(OC)c(OC)cc2nc1NCCc1ccccn1 | 6.08 |
| CCNc1nc2cc(Cl)c(C#CCCCC#N)cc2nc1NCC | 6.24 |
| CCNc1nc2cc(OC)c(Cl)cc2nc1-c1ccc(N2CCN(C(=O)OC(C)(C)C)CC2)nc1 | 5.77 |

| Compound | pIC50 |
| --- | --- |
| CCNc1nc2cc(OC)c(OC)cc2nc1Cl | 5.20 |
| CCNc1nc2cc(OC)c(Cl)cc2nc1-c1cccc2ncccc12 | 5.85 |
| CCNc1nc2cc(Cl)c(C#CC3CC3)cc2nc1NCC | 7.72 |
| CCNc1nc2cc(Cl)c(C#Cc3ccoc3)cc2nc1NCC | 5.99 |
| CCC#Cc1cc2nc(NCC)c(NCC)nc2cc1Cl | 6.57 |
| CCCCC#Cc1cc2nc(NCC)c(NCC)nc2cc1Cl | 6.05 |
| CCNc1nc2cc(OC)c(OC)cc2nc1NCCc1ccncc1 | 6.13 |
| CCNc1nc2cc(C#CCCO)c(Cl)cc2nc1Cl | 7.39 |
| CN1CCN(CCNc2nc3cc(Cl)c(C#CCCO)cc3nc2NCCN2CCN(C)CC2)CC1 | 7.44 |
| COc1cc2nc(Br)c(NCCN3CCN(C)CC3)nc2cc1OC | 4.78 |
| CCNc1nc2cc(OC)c(OC)cc2nc1NC | 5.60 |
| CCNc1nc2cc(Cl)c(C#CCCO)cc2nc1NCC | 8.30 |
| CCNc1nc2cc(OC)c(Cl)cc2nc1-c1ccc2c(ccn2C)c1 | 6.66 |
| COc1cc2nc(NCc3cccnc3)c(-c3ccncc3)nc2cc1OC | 5.12 |
| CCNc1nc2cc(OC)c(Cl)cc2nc1-c1cnn(C)c1 | 7.18 |
| CCNc1nc2cc(O)c(Cl)cc2nc1NCC | 6.44 |
| CCNc1nc2cc(OC)c(Cl)cc2nc1-c1ccc2occc(=O)c2c1 | 5.80 |
| CCNc1nc2cc(OC)c(Cl)cc2nc1NCCCN1CCN(C)CC1 | 6.71 |
| CCNc1nc2cc(C#CCCO)c(Cl)cc2nc1NCCCN1CCN(C)CC1 | 7.80 |
| CCNc1nc2cc(Cl)c(-c3noc(CCO)n3)cc2nc1NCC | 6.22 |
| CCNc1nc2cc(OC)c(OC)cc2nc1Br | 5.33 |
| CCNc1nc2cc(OC)c(Cl)cc2nc1-c1ccccc1-c1ccccc1 | 5.70 |
| CCNc1nc2cc(Cl)c(C#CCOC)cc2nc1NCC | 7.18 |

| Compound | pIC50 |
| --- | --- |
| CCNc1nc2cc(Cl)c(C#CCOC(=O)CC)cc2nc1NCC | 6.59 |
| CCNc1nc2cc(OC)c(Cl)cc2nc1-c1cc2ccccc2o1 | 5.85 |
| CCNc1nc2cc(Cl)c(C#Cc3cccc(O)c3)cc2nc1NCC | 5.24 |
| CCNc1nc2cc(OC)c(Cl)cc2nc1-c1ccc(Cl)cc1 | 5.72 |
| CCNc1nc2cc(Cl)c(C#CCO)cc2nc1NCC | 9.00 |
| CCNc1nc2cc(Cl)c(CC(=O)CCC(=O)O)cc2nc1NCC | 5.23 |
| CCNc1nc2cc(Cl)c(OC(F)(F)F)cc2nc1NCC | 5.93 |
| CCNc1nc2cc(Cl)c(C#CCCCO)cc2nc1NCC | 7.38 |
| CCNc1nc2cc(OC)c(Cl)cc2nc1-c1cccc(C(=O)NCc2ccco2)c1 | 6.68 |
| CCNc1nc2cc(Cl)c(C#N)cc2nc1NCc1cccnc1 | 7.82 |
| CCNc1nc2cc(OC)c(Cl)cc2nc1-c1cc2ccccc2s1 | 7.11 |
| CCNc1nc2cc(Cl)c(NC(C)=O)cc2nc1NCC | 5.38 |
| CCNc1nc2cc(Cl)c(CC(=O)CCC(=O)OC)cc2nc1NCC | 5.05 |
| CCNc1nc2cc(OC)c(Cl)cc2nc1NC(C)CCCN(CC)CC (stereo not given) | 6.29 |
| CCNc1nc2cc(OC)c(Cl)cc2nc1-c1ccc2c(c1)OCO2 | 5.64 |
| C#CCOc1cc2nc(NCC)c(NCC)nc2cc1Cl | 6.49 |
| CCNc1nc2cc(Cl)c(C#CC(C)(O)CC)cc2nc1NCC (stereo not given) | 5.32 |
| CCNc1nc2cc(Cl)c(C#N)cc2nc1NCC | 7.42 |
| CCNc1nc2cc(OC)c(Cl)cc2nc1-c1cnn(Cc2ccccc2)c1 | 7.04 |
| CCNc1nc2cc(Cl)c(NC(=O)CCO)cc2nc1NCC | 5.96 |
| CCNc1nc2cc(Cl)c(C#CC(C)O)cc2nc1NCC (stereo not given) | 6.90 |
| CCNc1nc2cc(Cl)c(C#CCNC(N)=O)cc2nc1NCC | 6.41 |
| COc1cc2nc(NCCCN3CCCC3)c(-c3ccncc3)nc2cc1OC | 5.00 |

| Compound | pIC50 |
| --- | --- |
| CCNc1nc2cc(OC)c(Cl)cc2nc1-c1cccc2[nH]ccc12 | 5.36 |
| CCNc1nc2cc(Cl)c(C#CCCN3C(=O)c4ccccc4C3=O)cc2nc1NCC | 5.50 |
| CCNc1nc2cc(OC)c(Cl)cc2nc1-c1csc2ccccc12 | 5.70 |
| CCNc1nc2cc(Cl)c(C#CCCC#N)cc2nc1NCC | 7.27 |
| CCNc1nc2cc(Cl)c(C#CC(C)(C)O)cc2nc1NCC | 5.57 |
| CCNc1nc2cc(OC)c(Cl)cc2nc1-c1cccc2ccccc12 | 5.00 |
| CCNc1nc2cc(Cl)c(C#N)cc2nc1NCCN1CCN(C)CC1 | 7.15 |
| CCNc1nc2cc(Cl)c(C#CCCN)cc2nc1NCC | 5.98 |
| CCNc1nc2cc(Cl)c(N3CC(CCO)C3)cc2nc1NCC | 5.00 |
| C#Cc1cc2nc(NCC)c(NCC)nc2cc1Cl | 7.92 |
| CCNc1nc2cc(OC)c(OC)cc2nc1NCC | 4.30 |
| CCNc1nc2cc(OC)c(Cl)cc2nc1-c1cccc(C(=O)NCc2ccccc2)c1 | 6.26 |
| CCNc1nc2cc(Cl)c(C#CC(N)=O)cc2nc1NCC | 6.25 |
| CCCC(O)C#Cc1cc2nc(NCC)c(NCC)nc2cc1Cl (stereo not given) | 5.70 |
| CCNc1nc2cc(OC)c(Cl)cc2nc1-c1cn[nH]c1 | 7.12 |
| CCNc1nc2cc(Cl)c(C#CCC(C)O)cc2nc1NCC (stereo not given) | 6.91 |
| CCNc1nc2cc(OC)c(Cl)cc2nc1-c1cnc2ccccc2c1 | 5.34 |
| CCNc1nc2cc(C#CCCO)c(Cl)cc2nc1C#CCCO | 6.18 |
| CCNc1nc2cc(OC)c(OC)cc2nc1NCc1ccncc1 | 5.70 |
| CCNc1nc2cc(Cl)c([N+](=O)[O-])cc2nc1NCC | 7.01 |
| CCNc1nc2cc(Cl)c(C#CCOCCO)cc2nc1NCC | 6.99 |
